Assay results: ChEMBL document CHEMBL3785052, “Novel spiropyrazolone antitumor scaffold with potent activity: Design, synthesis and structure-activity relationship” (Eur J Med Chem, 2016)

Tests used:
[1] = Cytotoxicity against human HCT116 cells assessed as growth inhibition after 72 hrs by MTT assay; type: functional, cell-based; details: HCT-116, 72 h
[2] = test system: A549; experiment: Cytotoxicity against human A549 cells assessed as growth inhibition after 72 hrs by MTT assay; type: functional, cell-based; details: A549, 72 h
[3] = test system: MDA-MB-231; experiment: Cytotoxicity against human MDA-MB-231 cells assessed as growth inhibition after 72 hrs by MTT assay; type: functional, cell-based; details: MDA-MB-231, 72 h
[4] = test system: HCT-116; experiment: Induction of apoptosis in human HCT116 cells assessed as apoptotic cells at 5 uM after 48 hrs by annexin V-FITC/propidium iodide staining based flow cytometric analysis; type: functional
[5] = test system: HCT-116; experiment: Induction of apoptosis in human HCT116 cells assessed as apoptotic cells at 5 uM after 24 hrs by annexin V-FITC/propidium iodide staining based flow cytometric analysis; type: functional

Row | Compound | IC50 [1] | IC50 [2] | IC50 [3] | Activity [4] | Activity [5]
1 | CC1=NN(c2ccccc2)C(=O)[C@@]12C(=O)C=CC[C@H]2c1cccc(C)c1 | 5.82 µM | 3.5 µM | 6.61 µM |  | 
2 | CC1=NN(c2ccccc2)C(=O)[C@@]12C(=O)C=CC[C@H]2c1ccccc1 | 4.4 µM | 3.77 µM | 5.5 µM |  | 
3 | CC1=NN(c2ccccc2)C(=O)[C@]12C(=O)C=CC[C@H]2c1ccccc1[N+](=O)[O-] | 11.2 µM | 12.9 µM | 32.4 µM |  | 
4 | CC1=NN(c2ccccc2)C(=O)[C@@]12C(=O)C=CC[C@H]2c1ccc(C)cc1 | 5.21 µM | 6.09 µM | 8.3 µM |  | 
5 | CC1=NN(c2ccccc2)C(=O)[C@]12C(=O)C=CC[C@H]2c1ccc(C)cc1 | 4.22 µM | 2.89 µM | 5.72 µM |  | 
6 | CC1=NN(c2ccc(C)cc2)C(=O)[C@@]12C(=O)C=CC[C@H]2c1ccc(C)cc1 | 3.62 µM | 6.79 µM | 9.2 µM |  | 
7 | CC1=NN(c2ccc(C)cc2)C(=O)[C@]12C(=O)C=CC[C@H]2c1ccc(C)cc1 | 3.53 µM | 7.52 µM | 8.28 µM |  | 
8 | COc1ccccc1[C@@H]1CC=CC(=O)[C@]12C(=O)N(c1ccccc1)N=C2C | 2.85 µM | 3.96 µM | 5.14 µM | 72.13% | 68.44%
9 | CC1=NN(c2ccccc2)C(=O)[C@]12C(=O)C=CC[C@H]2c1ccccc1 | 5.3 µM | 8.29 µM | 5.8 µM |  | 
10 | CC1=NN(c2ccccc2)C(=O)[C@]12C(=O)C=CC[C@H]2c1cccc(C)c1 | 9.58 µM | 13.1 µM | 10.3 µM |  | 
11 | CC1=NN(c2ccccc2)C(=O)[C@@]12C(=O)C=CC[C@@H]2c1ccccc1 (racemic) | 6.07 µM | 7.77 µM | 9.31 µM |  | 
12 | CC1=NN(c2ccccc2)C(=O)[C@@]12C(=O)C=CC[C@@H]2c1cccc(C)c1 (racemic) | 3.8 µM | 4.51 µM | 6.8 µM |  | 
13 | CC1=NN(c2ccc(C)cc2)C(=O)[C@@]12C(=O)C=CC[C@@H]2c1ccc(C)cc1 (racemic) | 4.15 µM | 4.32 µM | 8.12 µM |  | 
14 | CC1=NN(c2ccc(C)cc2)C(=O)[C@]12C(=O)C=CC[C@@H]2c1ccc(C)cc1 (racemic) | 14.6 µM | 54.2 µM | 57.2 µM |  | 
15 | CC1=NN(c2ccccc2)C(=O)[C@]12C(=O)C=CC[C@@H]2c1ccc(C)cc1 (racemic) | 5.8 µM | 8.6 µM | 6.24 µM |  | 
16 | CC1=NN(c2ccccc2)C(=O)[C@]12C(=O)C=CC[C@@H]2c1cccc(C)c1 (racemic) | 5.49 µM | 4.77 µM | 8 µM |  | 
17 | COc1ccccc1[C@H]1CC=CC(=O)[C@@]12C(=O)N(c1ccccc1)N=C2C (racemic) | 13.9 µM | 18.7 µM | 15.7 µM |  | 
18 | CC1=NN(c2ccccc2)C(=O)[C@@]12C(=O)C=CC[C@@H]2c1ccc(C)cc1 (racemic) | 5.22 µM | 6.57 µM | 7.42 µM |  | 
19 | CC1=NN(c2ccccc2)C(=O)[C@]12C(=O)C=CC[C@@H]2c1ccccc1 (racemic) | 6.04 µM | 9.18 µM | 9.08 µM |  | 
20 | CC1=NN(c2ccccc2)C(=O)[C@@]12C(=O)C=CC[C@@H]2c1ccccc1[N+](=O)[O-] (racemic) | 66.8 µM | 66.4 µM | 68.3 µM |  | 
21 | COc1cccc2c1C(=O)c1c(O)c3c(c(O)c1C2=O)C[C@@](O)(C(=O)CO)C[C@@H]3O[C@H]1C[C@H](N)[C@H](O)[C@H](C)O1 [DOXORUBICIN] |  |  | 0.45 µM |  | 
22 | O=C(CCCCCCC(=O)Nc1ccccc1)NO [VORINOSTAT] |  |  |  | 62.4% | 42.2%
